From US11339171B2, “MDM2 inhibitors” (Gan & Lee Pharmaceuticals, priority 2017, dated 2022)
Where two headings read alike, the source gives them in different places.

Legend:
[1] = test system: human osteosarcoma cell line SJSA-1; experiment: Inhibition of proliferation of human osteosarcoma cell line SJSA-1 (DAPI staining, In Cell Analyzer); conditions: for inhibitory effect on human osteosarcoma cell line SJSA-1 compared with positive control compound HDM201: labels are Example numbers, the compounds with S-configuration are meant
MDM2 = biological target: T1, MDM2 (Homo sapiens, UniProt Q00987); experiment: Inhibition test of MDM2-P53 (GST-MDM2, Biotin-P53, Anti-GST-Tb, SA-XL665); type: binding; conditions: labels are Example numbers; the compounds with S-configuration are meant
T1 construct: made in house
Procedure, shortened: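 Compounds, serially diluted 5-fold (twelve concentrations), were shaken for 90 min at 25° C with a mix of GST-MDM2 (4 nM final), Biotin-P53, anti-GST-Tb and SA-XL665. Buffer: 1×PBS, 0.1% BSA, 5 mM DTT, 1 mM AEBSF; signal read on a microplate reader.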

[2] = Homo sapiens, SJSA-1, 72 h, read-out: IC50 (nM), inhibitory activity on proliferation of human osteosarcoma cell line SJSA-1, SJSA-1, incubated 72 h

T1 sequence (Q00987 whole entry): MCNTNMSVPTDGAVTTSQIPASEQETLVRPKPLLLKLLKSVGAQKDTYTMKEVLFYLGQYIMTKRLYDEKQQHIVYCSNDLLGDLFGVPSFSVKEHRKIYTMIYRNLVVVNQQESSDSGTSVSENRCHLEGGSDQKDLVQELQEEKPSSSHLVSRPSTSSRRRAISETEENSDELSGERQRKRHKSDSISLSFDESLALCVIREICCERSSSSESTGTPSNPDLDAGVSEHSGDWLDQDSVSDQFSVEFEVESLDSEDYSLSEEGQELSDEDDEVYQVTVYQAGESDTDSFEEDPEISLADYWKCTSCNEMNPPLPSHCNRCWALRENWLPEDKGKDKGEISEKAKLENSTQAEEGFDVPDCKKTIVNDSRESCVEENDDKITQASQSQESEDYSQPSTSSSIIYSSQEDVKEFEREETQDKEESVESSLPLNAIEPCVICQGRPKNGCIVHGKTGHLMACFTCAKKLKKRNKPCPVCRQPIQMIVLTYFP

Structure (SMILES) | inhibitory effect on human osteosarcoma cell line SJSA-1 compared with positive control compound HDM201 [1] | inhibitory effect on MDM2 compared with positive control compound HDM201 (MDM2) | IC50 [1, 2] | IC50 ([1]; read-out: IC50 (nM), inhibitory activity on proliferation of human osteosarcoma cell line SJSA-1, SJSA-1, incubated 72 h)
COc1ncc(-c2nc3c(n2C(C)C)C2(C(=O)Nc4cc(Cl)ccc42)N(c2cc(Cl)ccc2C)C3=O)c(OC)n1 (centres unmarked) [Example 2, 6-chloro-5′-(5-chloro-2-methylphenyl)-2′-(2,4-dimethoxypyrimidin-5-yl)-3′-isopropyl-3′H-spiro[dihydroindole-3,4′-pyrrolo[3,4-d]imidazole]-2,6′(5′H)-dione] | better | better | – | –
COc1cc(OC)c(-c2nc3c(n2C(C)C)C2(C(=O)Nc4cc(Cl)ccc42)N(c2cc(Cl)ccc2C)C3=O)cn1 (centres unmarked) [Example 11, 6-chloro-5′-(5-chloro-2-methylphenyl)-2′-(4,6-dimethoxypyridin-3-yl)-3′-isopropyl-3′H-spiro[dihydroindole-3,4′-pyrrolo[3,4-d]imidazole]-2,6′(5′H)-dione] | better | better | – | –
CCc1ccc(Cl)cc1N1C(=O)c2nc(-c3cnc(OC)nc3OC)n(C(C)C)c2C12C(=O)Nc1cc(Cl)ccc12 (centres unmarked) [Example 15, 6-chloro-5′-(5-chloro-2-ethylphenyl)-2′-(2,4-dimethoxypyrimidin-5-yl)-3′-isopropyl-3′H-spiro[dihydroindole-3,4′-pyrrolo[3,4-d]imidazole]-2,6′(5′H)-dione] | better | better | – | –
COc1ccc(C(=O)N(C)C)cc1-c1nc2c(n1C(C)C)C1(C(=O)Nc3cc(Cl)ccc31)N(c1cc(Cl)ccc1C)C2=O (centres unmarked) [Example 22, 3-(6-chloro-5′-(5-chloro-2-methylphenyl)-3′-isopropyl-2,6′-dioxo-5′,6′-dihydro-3′H-spiro[dihydroindole-3,4′-pyrrolo[3,4-d]imidazole]-2′-yl)-4-methoxy-N,N-dimethylbenzamide] | better | better | – | –
COc1ncc(-c2nc3c(n2C(C)C)C2(C(=O)Nc4cc(Cl)ccc42)N(c2cc(Cl)cnc2C)C3=O)c(OC)n1 (centres unmarked) [Example 42, 6-chloro-5′-(5-chloro-2-methylpyridin-3-yl)-2′-(2,4-dimethoxypyrimidin-5-yl)-3′-isopropyl-3′H-spiro[dihydroindole-3,4′-pyrrolo[3,4-d]imidazole]-2,6′(5′H)-dione] | better | better | – | –
COc1ncc(-c2nc3c(n2C(C)C)C2(C(=O)Nc4cc(Cl)ccc42)N(c2cc(F)cc(Cl)c2)C3=O)c(OC)n1 (centres unmarked) [Example 45, 6-chloro-5′-(3-chloro-5-fluorophenyl)-2′-(2,4-dimethoxypyrimidin-5-yl)-3′-isopropyl-3′H-spiro[dihydroindole-3,4′-pyrrolo[3,4-d]imidazole]-2,6′(5′H)-dione] | better | better | – | –
COc1cc(N)ccc1-c1nc2c(n1C(C)C)C1(C(=O)Nc3cc(Cl)ccc31)N(c1cc(Cl)ccc1C)C2=O (centres unmarked) [Example 49, 2′-(4-amino-2-methoxyphenyl)-6-chloro-5′-(5-chloro-2-methylphenyl)-3′-isopropyl-3′H-spiro[dihydroindole-3,4′-pyrrolo[3,4-d]imidazole]-2,6′(5′H)-dione] | better | better | – | –
COc1ccc(-c2nc3c(n2C(C)C)C2(C(=O)Nc4cc(Cl)ccc42)N(c2cc(Cl)cnc2C)C3=O)c(OC)c1 (centres unmarked) [Example 61, 6-chloro-5′-(5-chloro-2-methylpyridin-3-yl)-2′-(2,4-dimethoxyphenyl)-3′-isopropyl-3′H-spiro[dihydroindole-3,4′-pyrrolo[3,4-d]imidazole]-2,6′(5′H)-dione] | better | better | – | –
COc1cc(OC(C)C)ncc1-c1nc2c(n1C(C)C)C1(C(=O)Nc3cc(Cl)ccc31)N(c1cc(Cl)ccc1C)C2=O (centres unmarked) [Example 69, 6-chloro-5′-(5-chloro-2-methylphenyl)-2′-(6-isopropoxy-4-methoxypyridin-3-yl)-3′-isopropyl-3′H-spiro[dihydroindole-3,4′-pyrrolo[3,4-d]imidazole]-2,6′(5′H)-dione] | better | better | – | –
CCOc1cc(OC)c(-c2nc3c(n2C(C)C)C2(C(=O)Nc4cc(Cl)ccc42)N(c2cc(Cl)ccc2C)C3=O)cn1 (centres unmarked) [Example 72, 6-chloro-5′-(5-chloro-2-methylphenyl)-2′-(6-ethoxy-4-methoxypyridin-3-yl)-3′-isopropyl-3′H-spiro[dihydroindole-3,4′-pyrrolo[3,4-d]imidazole]-2,6′(5′H)-dione] | better | better | – | –
COc1cc(N)c(C)cc1-c1nc2c(n1C(C)C)C1(C(=O)Nc3cc(Cl)ccc31)N(c1cc(Cl)ccc1C)C2=O (centres unmarked) [Example 74, 2′-(4-amino-2-methoxy-5-methylphenyl)-6-chloro-5′-(5-chloro-2-methylphenyl)-3′-isopropyl-3′H-spiro[dihydroindole-3,4′-pyrrolo[3,4-d]imidazole]-2,6′(5′H)-dione] | better | better | – | –
COc1cc(N)c(F)cc1-c1nc2c(n1C(C)C)C1(C(=O)Nc3cc(Cl)ccc31)N(c1cc(Cl)ccc1C)C2=O (centres unmarked) [Example 75, 2′-(4-amino-5-fluoro-2-methoxyphenyl)-6-chloro-5′-(5-chloro-2-methylphenyl)-3′-isopropyl-3′H-spiro[dihydroindole-3,4′-pyrrolo[3,4-d]imidazole]-2,6′(5′H)-dione] | better | better | – | –
COc1cc(N(C)C)c(F)cc1-c1nc2c(n1C(C)C)C1(C(=O)Nc3cc(Cl)ccc31)N(c1cc(Cl)ccc1C)C2=O (centres unmarked) [Example 78] | better | better | – | –
CCOc1ccc(-c2nc3c(n2C(C)C)C2(C(=O)Nc4cc(Cl)ccc42)N(c2cc(Cl)ccc2C)C3=O)c(OC)n1 (centres unmarked) [Example 146, 6-chloro-5′-(5-chloro-2-methylphenyl)-2′-(6-ethoxy-2-methoxypyridin-3-yl)-3′-isopropyl-3′H-spiro[dihydroindole-3,4′-pyrrolo[3,4-d]imidazole]-2,6′(5′H)-dione] | better | – | – | –
COc1nc(N(C)C)ccc1-c1nc2c(n1C(C)C)C1(C(=O)Nc3cc(Cl)ccc31)N(c1cc(Cl)ccc1C)C2=O (centres unmarked) [Example 157, 6-chloro-5′-(5-chloro-2-methylphenyl)-2′-(6-(dimethylamino)-2-methoxypyridin-3-yl)-3′-isopropyl-3′H-spiro[dihydroindole-3,4′-pyrrolo[3,4-d]imidazole]-2,6′(5′H)-dione] | better | – | – | –
COc1nc(C2CC2)ncc1-c1nc2c(n1C(C)C)C1(C(=O)Nc3cc(Cl)ccc31)N(c1cc(Cl)cnc1C)C2=O (centres unmarked) [Example 159, 6-chloro-5′-(5-chloro-2-methylpyridin-3-yl)-2′-(2-cyclopropyl-4-methoxypyrimidin-5-yl)-3′-isopropyl-3′H-spiro[dihydroindole-3,4′-pyrrolo[3,4-d]imidazole]-2,6′(5′H)-dione] | better | – | – | –
COc1cc(N(C)CCO)ccc1-c1nc2c(n1C(C)C)C1(C(=O)Nc3cc(Cl)ccc31)N(c1cc(Cl)ccc1C)C2=O (centres unmarked) [Example 162, 6-chloro-5′-(5-chloro-2-methylphenyl)-2′-(4-((2-hydroxyethyl)(methyl)amino)-2-methoxyphenyl)-3′-isopropyl-3′H-spiro[dihydroindole-3,4′-pyrrolo[3,4-d]imidazole]-2,6′(5′H)-dione] | better | – | – | –
COc1nc(C(C)C)ncc1-c1nc2c(n1C(C)C)C1(C(=O)Nc3cc(Cl)ccc31)N(c1cc(Cl)ccc1C)C2=O (centres unmarked) [Example 172, 6-chloro-5′-(5-chloro-2-methylphenyl)-3′-isopropyl-2′-(2-isopropyl-4-methoxypyrimidin-5-yl)-3′H-spiro[dihydroindole-3,4′-pyrrolo[3,4-d]imidazole]-2,6′(5′H)-dione] | better | – | – | –
COc1ccc(-c2nc3c(n2C(C)C)[C@]2(C(=O)Nc4cc(Cl)ccc42)N(c2cccc(Cl)c2)C3=O)c(OC)c1 [Example R-36, (R)-6-chloro-5′-(3-chlorophenyl)-2′-(2,4-dimethoxyphenyl)-3′-isopropyl-3′H-spiro[dihydroindole-3,4′-pyrrolo[3,4-d]imidazole]-2,6′(5′H)-dione] | – | – | 3180 nM | –
COc1ccc(-c2nc3c(n2C(C)C)[C@@]2(C(=O)Nc4cc(Cl)ccc42)N(c2cccc(Cl)c2)C3=O)c(OC)c1 [Example S-36, (S)-6-chloro-5′-(3-chlorophenyl)-2′-(2,4-dimethoxyphenyl)-3′-isopropyl-3′H-spiro[dihydroindole-3,4′-pyrrolo[3,4-d]imidazole]-2,6′(5′H)-dione] | – | – | 83.8 nM | 72.3 nM
COc1ccncc1-c1nc2c(n1C(C)C)[C@@]1(C(=O)Nc3cc(Cl)ccc31)N(c1ccc(F)c(Cl)c1)C2=O [Example S-59, (S)-6-chloro-5′-(3-chloro-4-fluorophenyl)-3′-isopropyl-2′-(4-methoxypyridin-3-yl)-3′H-spiro[dihydroindole-3,4′-pyrrolo[3,4-d]imidazole]-2,6′(5′H)-dione] | – | – | 263 nM | –
